Source: article PMC9959553, “Promising Antifungal Molecules against Mucormycosis Agents Identified from Pandemic Response Box®: In Vitro and In Silico Analyses” (Journal of Fungi, 2023)

Test system: R. oryzae UCP1295
Experiment: Screening of the Pandemic Response Box library at 5 µM
Assay type: cell-based, Rhizopus oryzae
Conditions: 48 h, Table S1, mean of the four values
Summary of the method: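 Compounds at 5 μM in RPMI 1640 with 2% glucose and MOPS (0.165 mol/L, pH 7.2), with conidia at 2 × 10^5/mL, incubated 48 h at 37 °C in 5% CO2. Growth read by OD at 600 nm; hits defined as ≥60% inhibition. Posaconazole (5 μM) and 1% DMSO as controls.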

Row | Compound | % of growth inhibition, Mean
1 | C=CCN(C(=O)OCc1ccc([N+](=O)[O-])cc1)C1CCN(CC[C@](C)(CN(C)S(=O)(=O)c2ccccc2)c2ccccc2)CC1 [MMV1782214] | 14.4%
2 | O=P(O)(O)C(CCCc1cccc(Oc2ccccc2)c1)S(=O)(=O)O (stereo not shown) [MMV1782215] | -6.1%
3 | CCCNc1ccc(S(=O)(=O)Nc2cc(C)on2)cc1 [MMV1782216] | -18.8%
4 | Cc1cc(NS(=O)(=O)c2ccc(-c3ccc(F)cc3F)cc2)no1 [MMV1782217] | -29.1%
5 | O=C(NC(=O)N1CCCc2ccccc21)c1ccc(Cl)cc1Cl [MMV1782218] | -21.0%
6 | CC(C)CCN1C(=O)C(C2=NS(=O)(=O)c3cc(NS(C)(=O)=O)ccc3N2)=C(O)[C@@H]2[C@H]3CC[C@H](C3)[C@@H]21 [MMV1782220] | 6.0%
7 | C[C@H](c1cccc2ccccc12)N(C)Cc1ccccc1 [MMV1782221] | -14.5%
8 | CN1c2ccc(Cl)cc2N(c2ccccc2)C(=O)c2cn(Cc3ccc(CN4CCOCC4)cc3)nc21 [MMV1782222] | 3.4%
9 | CN(C)c1[nH]c(=O)ncc1F [MMV1782223] | -26.3%
10 | N#C/C(=C1/SC[C@@H](c2ccc(Cl)cc2Cl)S1)n1ccnc1 [MMV1782224] | -14.5%
11 | O=C(Nc1[nH]c(=O)ncc1F)c1ccccc1 [MMV1782225] | -27.6%
12 | OB1OCc2c1ccc(Cl)c2F [MMV1782226] | -20.0%
13 | O=C(NNC(=S)Nc1ccc(Cl)cc1)c1ccncc1 [MMV1782227] | -24.0%
14 | Cc1cc(CCOc2c(C)cc(-c3nnn(C)n3)cc2C)on1 [MMV1782349] | -3.0%
15 | CC(C)Oc1ccc(-n2cnc3cc(/C=C\c4ccc(C(C)(C)O)cc4)ccc32)cc1 [MMV1782350] | 26.5%
16 | O=C(NC(=O)N1CCCc2ccccc21)c1cccc(Cl)c1 [MMV1782351] | -17.9%
17 | O=C(O)COc1cccc2c1CC[C@](O)(COC(=O)N(c1ccccc1)c1ccccc1)C2 [MMV1782352] | -13.6%
18 | CC(C)(C)NC(=O)[C@@H]1CN(Cc2cnc3occc3c2)CCN1C[C@@H](O)C[C@@H](Cc1ccccc1)C(=O)N[C@H]1c2ccccc2C[C@H]1O [MMV1782353] | -11.2%
19 | Cc1cc(-c2ccccc2)c(C(=O)C(=O)Nc2ccc(N3CCN(c4ncc(F)cn4)CC3)cc2)n1C [MMV1782354] | -38.2%
20 | Nc1nc2c(Cc3cccnc3)c[nH]c2c(=O)[nH]1 [MMV1782355] | -12.7%
21 | CN(O)C(=O)c1cc2c(CN3CCC[C@H]3C(N)=O)cn(Cc3ccc(F)cc3)c2cn1 [MMV1782386] | -4.5%
22 | COC(=O)Nc1nc2c(C)cccc2[nH]1 [MMV1782387] | -30.6%
23 | CNc1nc(=O)[nH]cc1F [MMV1782388] | -27.5%
24 | Cc1cc(C)n(O)c(=O)c1 [MMV1782389] | -20.7%
25 | Cc1cc(C)n2nc(C(=O)NS(=O)(=O)c3c(C)cccc3OC(F)(F)F)nc2n1 [MMV1782402] | -19.8%
26 | CCNC(=O)Nc1cn2c(-c3ncc(CC)cn3)cc(-c3cccnc3)cc2n1 [MMV1782403] | -42.7%
27 | O=S(=O)(NCB(O)O)c1ccc(-c2nnn[nH]2)cc1C(F)(F)F [MMV1782411] | -7.7%
28 | NC(=O)C(c1ccccc1)(c1ccccc1)[C@H]1CCCN(CCc2ccc3c(c2)CCO3)C1 [MMV1782412] | -1.5%
